Results as given in article PMC4441267.

Experiment: RuAAC macrocyclisation of azide/terminal alkyne linear peptidomimetics to 1,5-triazole ([Cp*RuCl]4 0.1 eq, Ar-degassed), then Boc removal (TMSCl/MeOH GP4 or HCl/dioxane GP5)
Conditions: toluene (reflux), 1.25 mM, 111.0 °C, 18.0 h, 2 steps

COC(=O)[C@@H]1Cc2ccc(cc2)-n2nncc2CCC(=O)NCCC[C@H](N)C(=O)N1 [Boc-Orn(4-pentynoyl)-Phe(4-N3)-OMe]
ring closure, yield over several steps (from C#CCCC(=O)NCCC[C@H](NC(=O)OC(C)(C)C)C(=O)N[C@@H](Cc1ccc(N=[N+]=[N-])cc1)C(=O)OC, 18-membered ring): 62%

COC(=O)[C@@H]1CCCn2nncc2CCCC(=O)NCCCC[C@H](N)C(=O)N1 [Boc-Lys(5-hexynoyl)-Orn(N3)-OMe]
ring closure, yield over several steps (from C#CCCCC(=O)NCCCC[C@H](NC(=O)OC(C)(C)C)C(=O)N[C@@H](CCCN=[N+]=[N-])C(=O)OC, 18-membered ring): 99%

COC(=O)[C@@H]1CCCCNC(=O)[C@H](Cc2ccccc2)n2nncc2CCC(=O)NCC[C@H](N)C(=O)N1 [Boc-Dab(4-pentynoyl)-Lys(N3-Phe)-OMe]
ring closure, yield over several steps (from C#CCCC(=O)NCC[C@H](NC(=O)OC(C)(C)C)C(=O)N[C@@H](CCCCNC(=O)[C@H](Cc1ccccc1)N=[N+]=[N-])C(=O)OC, 19-membered ring): 90%

COC(=O)[C@@H]1CNC(=O)[C@H](Cc2ccccc2)n2nncc2CCC(=O)NC[C@H](N)C(=O)N1 [Boc-Dap(4-pentynoyl)-Dap(N3-Phe)-OMe]
ring closure, yield over several steps (from C#CCCC(=O)NC[C@H](NC(=O)OC(C)(C)C)C(=O)N[C@@H](CNC(=O)[C@H](Cc1ccccc1)N=[N+]=[N-])C(=O)OC, 15-membered ring): 89%

COC(=O)[C@@H]1CNC(=O)[C@H](Cc2ccccc2)n2nncc2CNC(=O)NCCC[C@H](N)C(=O)N1 [Boc-Orn(CONH-propargyl)-Dap(N3-Phe)-OMe]
ring closure, yield over several steps (from C#CCNC(=O)NCCC[C@H](NC(=O)OC(C)(C)C)C(=O)N[C@@H](CNC(=O)[C@H](Cc1ccccc1)N=[N+]=[N-])C(=O)OC, 17-membered ring): 86%

COC(=O)[C@@H]1CCCn2nncc2CCC(=O)NC[C@H](N)C(=O)N1 [Boc-Dap(4-pentynoyl)-Orn(N3)-OMe]
ring closure, yield over several steps (from C#CCCC(=O)NC[C@H](NC(=O)OC(C)(C)C)C(=O)N[C@@H](CCCN=[N+]=[N-])C(=O)OC, 14-membered ring): 99%

COC(=O)[C@@H]1CCCCn2nncc2CCCC(=O)NCC[C@H](N)C(=O)N1 [Boc-Dab(5-hexynoyl)-Lys(N3)-OMe]
ring closure, yield over several steps (from C#CCCCC(=O)NCC[C@H](NC(=O)OC(C)(C)C)C(=O)N[C@@H](CCCCN=[N+]=[N-])C(=O)OC, 17-membered ring): 99%

COC(=O)[C@@H]1Cc2ccc(cc2)-n2nncc2CCC(=O)NCC[C@H](N)C(=O)N1 [Boc-Dab(4-pentynoyl)-Phe(4-N3)-OMe]
ring closure, yield over several steps (from C#CCCC(=O)NCC[C@H](NC(=O)OC(C)(C)C)C(=O)N[C@@H](Cc1ccc(N=[N+]=[N-])cc1)C(=O)OC, 17-membered ring): 83%

COC(=O)[C@@H]1CNC(=O)[C@H](Cc2ccccc2)n2nncc2CNC(=O)NC[C@H](N)C(=O)N1 [Boc-Dap(CONH-propargyl)-Dap(N3-Phe)-OMe]
ring closure, yield over several steps (from C#CCNC(=O)NC[C@H](NC(=O)OC(C)(C)C)C(=O)N[C@@H](CNC(=O)[C@H](Cc1ccccc1)N=[N+]=[N-])C(=O)OC, 15-membered ring): 40%

COC(=O)[C@@H]1CNC(=O)[C@H](Cc2ccccc2)n2nncc2CCC(=O)NCCCC[C@H](N)C(=O)N1 [Boc-Lys(4-pentynoyl)-Dap(N3-Phe)-OMe]
ring closure, yield over several steps (from C#CCCC(=O)NCCCC[C@H](NC(=O)OC(C)(C)C)C(=O)N[C@@H](CNC(=O)[C@H](Cc1ccccc1)N=[N+]=[N-])C(=O)OC, 18-membered ring): 90%

COC(=O)[C@@H]1Cc2ccc(cc2)-n2nncc2CNC(=O)NC[C@H](N)C(=O)N1 [Boc-Dap(CONH-propargyl)-Phe(4-N3)-OMe]
ring closure, yield over several steps (from C#CCNC(=O)NC[C@H](NC(=O)OC(C)(C)C)C(=O)N[C@@H](Cc1ccc(N=[N+]=[N-])cc1)C(=O)OC, 16-membered ring): 27%

COC(=O)[C@@H]1Cc2ccc(cc2)-n2nncc2CCC(=O)NC[C@H](N)C(=O)N1 [Boc-Dap(4-pentynoyl)-Phe(4-N3)-OMe]
ring closure, yield over several steps (from C#CCCC(=O)NC[C@H](NC(=O)OC(C)(C)C)C(=O)N[C@@H](Cc1ccc(N=[N+]=[N-])cc1)C(=O)OC, 16-membered ring): 33%

COC(=O)[C@@H]1Cc2ccc(cc2)-n2nncc2CCCC(=O)NCCC[C@H](N)C(=O)N1 [Boc-Orn(5-hexynoyl)-Phe(4-N3)-OMe]
ring closure, yield over several steps (from C#CCCCC(=O)NCCC[C@H](NC(=O)OC(C)(C)C)C(=O)N[C@@H](Cc1ccc(N=[N+]=[N-])cc1)C(=O)OC, 19-membered ring): 97%

COC(=O)[C@@H]1CNC(=O)[C@H](Cc2ccccc2)n2nncc2CNC(=O)NCC[C@H](N)C(=O)N1 [Boc-Dab(CONH-propargyl)-Dap(N3-Phe)-OMe]
ring closure, yield over several steps (from C#CCNC(=O)NCC[C@H](NC(=O)OC(C)(C)C)C(=O)N[C@@H](CNC(=O)[C@H](Cc1ccccc1)N=[N+]=[N-])C(=O)OC, 16-membered ring): 52%

COC(=O)[C@@H]1Cc2ccc(cc2)-n2nncc2CNC(=O)NCC[C@H](N)C(=O)N1 [Boc-Dab(CONH-propargyl)-Phe(4-N3)-OMe]
ring closure, yield over several steps (from C#CCNC(=O)NCC[C@H](NC(=O)OC(C)(C)C)C(=O)N[C@@H](Cc1ccc(N=[N+]=[N-])cc1)C(=O)OC, 17-membered ring): 40%

COC(=O)[C@@H]1CCCCNC(=O)[C@H](Cc2ccccc2)n2nncc2CCCC(=O)NCC[C@H](N)C(=O)N1 [Boc-Dab(5-hexynoyl)-Lys(N3-Phe)-OMe]
ring closure, yield over several steps (from C#CCCCC(=O)NCC[C@H](NC(=O)OC(C)(C)C)C(=O)N[C@@H](CCCCNC(=O)[C@H](Cc1ccccc1)N=[N+]=[N-])C(=O)OC, 20-membered ring): 87%

COC(=O)[C@@H]1CCCCn2nncc2CCC(=O)NC[C@H](N)C(=O)N1 [Boc-Dap(4-pentynoyl)-Lys(N3)-OMe]
ring closure, yield over several steps (from C#CCCC(=O)NC[C@H](NC(=O)OC(C)(C)C)C(=O)N[C@@H](CCCCN=[N+]=[N-])C(=O)OC, 15-membered ring): 88%

COC(=O)[C@@H]1CCCn2nncc2CNC(=O)NCCCC[C@H](N)C(=O)N1 [Boc-Lys(CONH-propargyl)-Orn(N3)-OMe]
ring closure, yield over several steps (from C#CCNC(=O)NCCCC[C@H](NC(=O)OC(C)(C)C)C(=O)N[C@@H](CCCN=[N+]=[N-])C(=O)OC, 17-membered ring): 99%

COC(=O)[C@@H]1CCCn2nncc2CCC(=O)Nc2ccc(cc2)C[C@H](N)C(=O)N1 [Boc-Phe(4-NH-4-pentynoyl)-Orn(N3)-OMe]
ring closure, yield over several steps (from C#CCCC(=O)Nc1ccc(C[C@H](NC(=O)OC(C)(C)C)C(=O)N[C@@H](CCCN=[N+]=[N-])C(=O)OC)cc1, 18-membered ring): 44%

COC(=O)[C@@H]1Cc2ccc(cc2)-n2nncc2CCCC(=O)NCC[C@H](N)C(=O)N1 [Boc-Dab(5-hexynoyl)-Phe(4-N3)-OMe]
ring closure, yield over several steps (from C#CCCCC(=O)NCC[C@H](NC(=O)OC(C)(C)C)C(=O)N[C@@H](Cc1ccc(N=[N+]=[N-])cc1)C(=O)OC, 18-membered ring): 97%

COC(=O)[C@@H]1CCCCn2nncc2CCCC(=O)NCCCC[C@H](N)C(=O)N1 [Boc-Lys(5-hexynoyl)-Lys(N3)-OMe]
ring closure, yield over several steps (from C#CCCCC(=O)NCCCC[C@H](NC(=O)OC(C)(C)C)C(=O)N[C@@H](CCCCN=[N+]=[N-])C(=O)OC, 19-membered ring): 65%

COC(=O)[C@@H]1CNC(=O)[C@H](Cc2ccccc2)n2nncc2CCCC(=O)NCCCC[C@H](N)C(=O)N1 [Boc-Lys(5-hexynoyl)-Dap(N3-Phe)-OMe]
ring closure, yield over several steps (from C#CCCCC(=O)NCCCC[C@H](NC(=O)OC(C)(C)C)C(=O)N[C@@H](CNC(=O)[C@H](Cc1ccccc1)N=[N+]=[N-])C(=O)OC, 19-membered ring): 99%

COC(=O)[C@@H]1CCCCNC(=O)[C@H](Cc2ccccc2)n2nncc2CCC(=O)NC[C@H](N)C(=O)N1 [Boc-Dap(4-pentynoyl)-Lys(N3-Phe)-OMe]
ring closure, yield over several steps (from C#CCCC(=O)NC[C@H](NC(=O)OC(C)(C)C)C(=O)N[C@@H](CCCCNC(=O)[C@H](Cc1ccccc1)N=[N+]=[N-])C(=O)OC, 18-membered ring): 99%

COC(=O)[C@@H]1Cc2ccc(cc2)-n2nncc2CCC(=O)NCCCC[C@H](N)C(=O)N1 [Boc-Lys(4-pentynoyl)-Phe(4-N3)-OMe]
ring closure, yield over several steps (from C#CCCC(=O)NCCCC[C@H](NC(=O)OC(C)(C)C)C(=O)N[C@@H](Cc1ccc(N=[N+]=[N-])cc1)C(=O)OC, 19-membered ring): 68%

COC(=O)[C@@H]1CCCCNC(=O)[C@H](Cc2ccccc2)n2nncc2CNC(=O)NCCC[C@H](N)C(=O)N1 [Boc-Orn(CONH-propargyl)-Lys(N3-Phe)-OMe]
ring closure, yield over several steps (from C#CCNC(=O)NCCC[C@H](NC(=O)OC(C)(C)C)C(=O)N[C@@H](CCCCNC(=O)[C@H](Cc1ccccc1)N=[N+]=[N-])C(=O)OC, 20-membered ring): 56%

COC(=O)[C@@H]1CNC(=O)[C@H](Cc2ccccc2)n2nncc2CCC(=O)NCC[C@H](N)C(=O)N1 [Boc-Dab(4-pentynoyl)-Dap(N3-Phe)-OMe]
ring closure, yield over several steps (from C#CCCC(=O)NCC[C@H](NC(=O)OC(C)(C)C)C(=O)N[C@@H](CNC(=O)[C@H](Cc1ccccc1)N=[N+]=[N-])C(=O)OC, 16-membered ring): 60%
